# Reference: ChEMBL document CHEMBL2413041, “In search of potent and selective inhibitors of neuronal nitric oxide synthase with more simple structures” (Bioorg Med Chem, 2013)
# Columns and labels:
# [1] = biological target: T1, Nitric oxide synthase, inducible (Mus musculus, UniProt P29477); experiment: Inhibition of recombinant mouse macrophage iNOS expressed in Escherichia coli using L-arginine as substrate assessed as formation of nitric oxide measured up to 60 secs by hemoglobin capture assay
# T1 sequence (P29477 whole entry): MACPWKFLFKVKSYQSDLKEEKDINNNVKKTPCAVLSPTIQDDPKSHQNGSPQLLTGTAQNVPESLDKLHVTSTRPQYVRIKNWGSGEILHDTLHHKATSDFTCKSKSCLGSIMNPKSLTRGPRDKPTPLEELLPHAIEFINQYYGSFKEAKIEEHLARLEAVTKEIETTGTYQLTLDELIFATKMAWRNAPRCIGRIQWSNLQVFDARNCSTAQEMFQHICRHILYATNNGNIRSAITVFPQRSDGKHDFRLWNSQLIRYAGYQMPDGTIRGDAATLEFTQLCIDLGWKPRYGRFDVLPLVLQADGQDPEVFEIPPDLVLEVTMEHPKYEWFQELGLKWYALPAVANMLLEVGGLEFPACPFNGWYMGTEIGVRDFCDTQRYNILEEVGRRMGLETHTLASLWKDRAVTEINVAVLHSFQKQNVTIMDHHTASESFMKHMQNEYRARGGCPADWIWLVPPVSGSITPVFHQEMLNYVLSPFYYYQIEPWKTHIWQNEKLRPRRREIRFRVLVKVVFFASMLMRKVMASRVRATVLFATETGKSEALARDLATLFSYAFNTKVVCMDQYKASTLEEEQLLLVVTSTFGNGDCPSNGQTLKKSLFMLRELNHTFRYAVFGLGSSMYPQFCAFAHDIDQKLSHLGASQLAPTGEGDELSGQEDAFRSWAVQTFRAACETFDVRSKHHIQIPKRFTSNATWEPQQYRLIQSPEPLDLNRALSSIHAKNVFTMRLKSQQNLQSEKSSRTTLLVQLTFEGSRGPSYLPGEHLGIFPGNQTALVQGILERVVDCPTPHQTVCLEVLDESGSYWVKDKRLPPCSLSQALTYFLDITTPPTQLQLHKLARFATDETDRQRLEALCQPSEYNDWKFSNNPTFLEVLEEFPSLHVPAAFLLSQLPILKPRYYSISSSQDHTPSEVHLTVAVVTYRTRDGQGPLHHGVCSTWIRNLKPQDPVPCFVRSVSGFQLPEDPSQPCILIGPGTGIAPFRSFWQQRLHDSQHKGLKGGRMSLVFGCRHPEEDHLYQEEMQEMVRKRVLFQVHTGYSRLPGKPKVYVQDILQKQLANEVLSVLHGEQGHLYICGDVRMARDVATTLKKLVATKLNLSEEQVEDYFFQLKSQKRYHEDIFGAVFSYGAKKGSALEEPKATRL
# [2] = Selectivity ratio of Ki for recombinant bovine eNOS to Ki for recombinant rat nNOS
# [3] = Selectivity ratio of Ki for recombinant mouse macrophage iNOS to Ki for recombinant rat nNOS
# [4] = biological target: T2, Nitric oxide synthase 3 (Bos taurus, UniProt P29473); experiment: Inhibition of recombinant bovine eNOS expressed in Escherichia coli using L-arginine as substrate assessed as formation of nitric oxide measured up to 60 secs by hemoglobin capture assay
# T2 sequence (P29473 whole entry): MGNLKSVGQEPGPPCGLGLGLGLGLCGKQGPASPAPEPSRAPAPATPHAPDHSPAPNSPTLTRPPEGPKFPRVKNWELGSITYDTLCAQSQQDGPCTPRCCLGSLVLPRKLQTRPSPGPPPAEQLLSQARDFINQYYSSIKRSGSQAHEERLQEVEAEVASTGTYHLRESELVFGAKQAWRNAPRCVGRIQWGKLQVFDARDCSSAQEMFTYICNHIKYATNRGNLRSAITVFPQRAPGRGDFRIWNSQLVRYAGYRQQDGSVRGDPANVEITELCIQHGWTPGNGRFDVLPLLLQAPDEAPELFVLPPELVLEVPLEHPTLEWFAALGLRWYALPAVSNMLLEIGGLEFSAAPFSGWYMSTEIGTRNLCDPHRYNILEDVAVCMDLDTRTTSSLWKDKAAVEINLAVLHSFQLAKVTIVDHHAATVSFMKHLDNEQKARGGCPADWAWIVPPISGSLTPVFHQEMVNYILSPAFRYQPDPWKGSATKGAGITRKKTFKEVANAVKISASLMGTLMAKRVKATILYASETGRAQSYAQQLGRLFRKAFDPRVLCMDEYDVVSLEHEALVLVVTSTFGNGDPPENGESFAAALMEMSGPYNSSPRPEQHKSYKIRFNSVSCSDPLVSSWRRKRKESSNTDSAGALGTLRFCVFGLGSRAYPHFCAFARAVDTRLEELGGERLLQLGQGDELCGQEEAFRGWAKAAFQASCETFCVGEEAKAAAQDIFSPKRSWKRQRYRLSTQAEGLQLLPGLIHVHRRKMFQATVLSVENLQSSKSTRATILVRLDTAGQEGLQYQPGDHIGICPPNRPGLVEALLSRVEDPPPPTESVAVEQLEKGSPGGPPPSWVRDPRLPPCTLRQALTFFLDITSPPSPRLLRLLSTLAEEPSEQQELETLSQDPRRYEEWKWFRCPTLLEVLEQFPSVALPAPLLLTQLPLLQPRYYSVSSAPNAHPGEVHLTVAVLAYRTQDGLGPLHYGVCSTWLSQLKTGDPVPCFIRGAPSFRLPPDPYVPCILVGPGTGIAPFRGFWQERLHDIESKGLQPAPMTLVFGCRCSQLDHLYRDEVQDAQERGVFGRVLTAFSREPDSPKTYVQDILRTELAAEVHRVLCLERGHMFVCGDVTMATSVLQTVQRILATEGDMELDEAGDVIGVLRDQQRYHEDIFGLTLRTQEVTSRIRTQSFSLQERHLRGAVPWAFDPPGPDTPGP
# [5] = biological target: Nitric oxide synthase 1 (Rattus norvegicus, UniProt P29476); experiment: Inhibition of recombinant rat nNOS expressed in Escherichia coli using L-arginine as substrate assessed as formation of nitric oxide measured up to 60 secs by hemoglobin capture assay
# Chain of Nitric oxide synthase 1 (P29476 whole entry): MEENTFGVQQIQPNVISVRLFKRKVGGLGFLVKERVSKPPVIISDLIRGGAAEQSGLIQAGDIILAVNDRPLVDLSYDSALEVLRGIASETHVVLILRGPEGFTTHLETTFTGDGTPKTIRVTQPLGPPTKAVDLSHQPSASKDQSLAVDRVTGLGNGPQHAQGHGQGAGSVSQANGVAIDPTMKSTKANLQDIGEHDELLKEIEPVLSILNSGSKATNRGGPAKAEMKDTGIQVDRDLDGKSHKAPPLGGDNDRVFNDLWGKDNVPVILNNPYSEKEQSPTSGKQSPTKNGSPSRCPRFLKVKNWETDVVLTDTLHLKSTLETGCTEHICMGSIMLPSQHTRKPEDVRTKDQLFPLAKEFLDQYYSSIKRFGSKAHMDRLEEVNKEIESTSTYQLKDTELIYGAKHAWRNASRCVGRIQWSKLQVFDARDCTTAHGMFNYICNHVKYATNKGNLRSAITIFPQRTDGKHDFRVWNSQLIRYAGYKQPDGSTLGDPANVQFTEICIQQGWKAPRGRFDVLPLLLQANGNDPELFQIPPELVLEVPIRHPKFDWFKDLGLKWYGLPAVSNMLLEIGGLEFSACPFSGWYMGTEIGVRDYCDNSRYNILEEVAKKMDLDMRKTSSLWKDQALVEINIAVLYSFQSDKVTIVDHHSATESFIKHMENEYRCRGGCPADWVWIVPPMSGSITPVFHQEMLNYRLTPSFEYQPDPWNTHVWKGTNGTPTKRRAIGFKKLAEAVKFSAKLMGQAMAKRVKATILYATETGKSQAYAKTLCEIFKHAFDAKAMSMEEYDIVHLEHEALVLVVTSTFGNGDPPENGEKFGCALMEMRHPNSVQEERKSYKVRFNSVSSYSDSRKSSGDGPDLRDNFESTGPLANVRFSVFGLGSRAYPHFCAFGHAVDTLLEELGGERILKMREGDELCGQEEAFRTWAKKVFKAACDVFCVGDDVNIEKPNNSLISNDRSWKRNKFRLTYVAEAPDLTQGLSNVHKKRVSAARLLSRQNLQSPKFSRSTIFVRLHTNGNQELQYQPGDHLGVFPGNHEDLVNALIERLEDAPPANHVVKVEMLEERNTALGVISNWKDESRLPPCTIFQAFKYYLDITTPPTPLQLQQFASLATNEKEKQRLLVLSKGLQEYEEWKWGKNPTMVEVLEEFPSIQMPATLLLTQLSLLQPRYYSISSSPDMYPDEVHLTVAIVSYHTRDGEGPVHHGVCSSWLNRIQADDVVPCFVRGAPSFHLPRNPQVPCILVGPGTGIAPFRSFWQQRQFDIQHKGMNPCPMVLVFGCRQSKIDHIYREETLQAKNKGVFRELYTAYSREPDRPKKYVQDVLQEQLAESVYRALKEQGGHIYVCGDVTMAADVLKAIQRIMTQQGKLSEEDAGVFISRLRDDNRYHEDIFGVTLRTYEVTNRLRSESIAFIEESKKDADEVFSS
Ki [1],Ratio Ki [2],Ratio Ki [3],Ki [4],Ki [5],Structure (SMILES)
1.8 µM,86,54,2.84 µM,0.033 µM,Cc1cc(N)nc(CCCCCCc2cc(C)cc(N)n2)c1
0.375 µM,–,–,–,–,Cc1cc(N)nc(CCCCCc2cc(C)cc(N)n2)c1
2.19 µM,25,25,2.15 µM,0.086 µM,Cc1cc(N)nc(CCCCCCCc2cc(C)cc(N)n2)c1
–,–,–,–,2.16 µM,Cc1cc(N)nc(COc2cccc(NCCc3cccc(F)c3)c2)c1
–,–,–,–,3.85 µM,Cc1cc(N)nc(COc2ccccc2-c2ccccc2OCc2ccncc2)c1
8.43 µM,21,31,5.62 µM,0.27 µM,Cc1cc(N)nc(COCc2cccc(CNCCc3cccc(F)c3)n2)c1
–,–,–,–,4.23 µM,Cc1cc(N)nc(COc2ccccc2-c2ccccc2OCC2CCNCC2)c1
–,298,140,–,–,Cc1cc(N)nc(COc2cccc(OCCCN)c2)c1
–,102,44,–,–,Cc1cc(N)nc(COc2cccc(OCc3ccncc3)c2)c1

Structure (SMILES),Ki [1],Ratio Ki [2],Ratio Ki [3],Ki [4],Ki [5]
Cc1cc(N)nc(COc2cccc(OCC3CCNCC3)c2)c1,–,239,146,–,–
